# Experimental data reported in US20230266302A1, “SYNTHESIS AND USE OF N-BENZYL SULFONAMIDES” (THE UNIVERSITY OF TULSA, priority 2020, published 2023).
# System: PC3 (prostate cancer)
# Experiment: ATP level assay (CellTiter-Glo), percent of control
# Assay type: cell-based
# Conditions: 2 h; compound alone, 100 uM, two hour incubation, control DMSO; read-out: POC (percent of control) PC3
row,Structure (SMILES),activity at 100 µM [%]
1,"Cc1ccc(S(=O)(=O)NCc2cscn2)cc1 [Compound 17, 4-methyl-N-(1,3-thiazol-4-ylmethyl)benzenesulfonamide]",113

# Same assay, conditions: compound 100 uM + 2DG (about 10-20 mM), two hour incubation
row,Structure (SMILES),POC (percent of control) PC3
1,"Cc1ccc(S(=O)(=O)NCc2cscn2)cc1 [Compound 17, 4-methyl-N-(1,3-thiazol-4-ylmethyl)benzenesulfonamide]",93.7% of control

# Same assay, conditions: compound 100 uM + rotenone (approximately 1.25 μM), two hour incubation
row,Structure (SMILES),POC (percent of control) PC3
1,"Cc1ccc(S(=O)(=O)NCc2cscn2)cc1 [Compound 17, 4-methyl-N-(1,3-thiazol-4-ylmethyl)benzenesulfonamide]",90.9% of control

# System: HDF (normal cells)
# Experiment: as above
# Assay type: cell-based
# Conditions: 2 h; compound alone, 100 uM, two hour incubation, control DMSO; read-out: POC (percent of control) HDF
row,Structure (SMILES),activity at 100 µM [%]
1,"Cc1ccc(S(=O)(=O)NCc2cscn2)cc1 [Compound 17, 4-methyl-N-(1,3-thiazol-4-ylmethyl)benzenesulfonamide]",90.7

# Same assay, conditions: compound 100 uM + 2DG (about 10-20 mM), two hour incubation
row,Structure (SMILES),POC (percent of control) HDF
1,"Cc1ccc(S(=O)(=O)NCc2cscn2)cc1 [Compound 17, 4-methyl-N-(1,3-thiazol-4-ylmethyl)benzenesulfonamide]",98% of control

# Same assay, conditions: compound 100 uM + rotenone (approximately 1.25 μM), two hour incubation
row,Structure (SMILES),POC (percent of control) HDF
1,"Cc1ccc(S(=O)(=O)NCc2cscn2)cc1 [Compound 17, 4-methyl-N-(1,3-thiazol-4-ylmethyl)benzenesulfonamide]",84.1% of control

# System: HeLa (cervical cancer)
# Experiment: as above
# Assay type: cell-based
# Conditions: Homo sapiens, HeLa, 2 h; compound alone, 100 uM, two hour incubation, control DMSO; read-out: POC (percent of control) HeLa
row,Structure (SMILES),activity at 100 µM [%]
1,"Cc1ccc(S(=O)(=O)NCc2cscn2)cc1 [Compound 17, 4-methyl-N-(1,3-thiazol-4-ylmethyl)benzenesulfonamide]",90.3

# Same assay, conditions: compound 100 uM + 2DG (about 10-20 mM), two hour incubation
row,Structure (SMILES),POC (percent of control) HeLa
1,"Cc1ccc(S(=O)(=O)NCc2cscn2)cc1 [Compound 17, 4-methyl-N-(1,3-thiazol-4-ylmethyl)benzenesulfonamide]",118.8% of control

# Same assay, conditions: compound 100 uM + rotenone (approximately 1.25 μM), two hour incubation
row,Structure (SMILES),POC (percent of control) HeLa
1,"Cc1ccc(S(=O)(=O)NCc2cscn2)cc1 [Compound 17, 4-methyl-N-(1,3-thiazol-4-ylmethyl)benzenesulfonamide]",110.3% of control

# System: SkBr3 (breast cancer)
# Experiment: as above
# Assay type: cell-based
# Conditions: Homo sapiens, SK-BR-3, 2 h; compound alone, 100 uM, two hour incubation, control DMSO; read-out: POC (percent of control) SkBr3
row,Structure (SMILES),activity at 100 µM [%]
1,"Cc1ccc(S(=O)(=O)NCc2cscn2)cc1 [Compound 17, 4-methyl-N-(1,3-thiazol-4-ylmethyl)benzenesulfonamide]",90.1

# Same assay, conditions: compound 100 uM + 2DG (about 10-20 mM), two hour incubation
row,Structure (SMILES),POC (percent of control) SkBr3
1,"Cc1ccc(S(=O)(=O)NCc2cscn2)cc1 [Compound 17, 4-methyl-N-(1,3-thiazol-4-ylmethyl)benzenesulfonamide]",88.8% of control

# Same assay, conditions: compound 100 uM + rotenone (approximately 1.25 μM), two hour incubation
row,Structure (SMILES),POC (percent of control) SkBr3
1,"Cc1ccc(S(=O)(=O)NCc2cscn2)cc1 [Compound 17, 4-methyl-N-(1,3-thiazol-4-ylmethyl)benzenesulfonamide]",95.4% of control

# System: NCI-H196 (lung cancer)
# Experiment: as above
# Assay type: cell-based
# Conditions: NCI-H196, 2 h; compound alone, 100 uM, two hour incubation, control DMSO; read-out: POC (percent of control) NCI-H196
row,Structure (SMILES),activity at 100 µM [%]
1,"Cc1ccc(S(=O)(=O)NCc2cscn2)cc1 [Compound 17, 4-methyl-N-(1,3-thiazol-4-ylmethyl)benzenesulfonamide]",96.8

# Same assay, conditions: compound 100 uM + 2DG (about 10-20 mM), two hour incubation
row,Structure (SMILES),POC (percent of control) NCI-H196
1,"Cc1ccc(S(=O)(=O)NCc2cscn2)cc1 [Compound 17, 4-methyl-N-(1,3-thiazol-4-ylmethyl)benzenesulfonamide]",103.8% of control

# Same assay, conditions: compound 100 uM + rotenone (approximately 1.25 μM), two hour incubation
row,Structure (SMILES),POC (percent of control) NCI-H196
1,"Cc1ccc(S(=O)(=O)NCc2cscn2)cc1 [Compound 17, 4-methyl-N-(1,3-thiazol-4-ylmethyl)benzenesulfonamide]",89.4% of control

# System: MDA-MB (breast cancer)
# Experiment: as above
# Assay type: cell-based
# Conditions: 2 h; compound alone, 100 uM, two hour incubation, control DMSO; read-out: POC (percent of control) MDA-MB
row,Structure (SMILES),activity at 100 µM [%]
1,"Cc1ccc(S(=O)(=O)NCc2cscn2)cc1 [Compound 17, 4-methyl-N-(1,3-thiazol-4-ylmethyl)benzenesulfonamide]",105

# Same assay, conditions: compound 100 uM + 2DG (about 10-20 mM), two hour incubation
row,Structure (SMILES),POC (percent of control) MDA-MB
1,"Cc1ccc(S(=O)(=O)NCc2cscn2)cc1 [Compound 17, 4-methyl-N-(1,3-thiazol-4-ylmethyl)benzenesulfonamide]",89.8% of control

# Same assay, conditions: compound 100 uM + rotenone (approximately 1.25 μM), two hour incubation
row,Structure (SMILES),POC (percent of control) MDA-MB
1,"Cc1ccc(S(=O)(=O)NCc2cscn2)cc1 [Compound 17, 4-methyl-N-(1,3-thiazol-4-ylmethyl)benzenesulfonamide]",98.1% of control

# System: MCF10A (non-cancerous breast)
# Experiment: as above
# Assay type: cell-based
# Conditions: Homo sapiens, MCF-10A, 2 h; compound alone, 100 uM, two hour incubation, control DMSO; read-out: POC (percent of control) MCF10A
row,Structure (SMILES),activity at 100 µM [%]
1,"Cc1ccc(S(=O)(=O)NCc2cscn2)cc1 [Compound 17, 4-methyl-N-(1,3-thiazol-4-ylmethyl)benzenesulfonamide]",92.4

# Same assay, conditions: compound 100 uM + 2DG (about 10-20 mM), two hour incubation
row,Structure (SMILES),POC (percent of control) MCF10A
1,"Cc1ccc(S(=O)(=O)NCc2cscn2)cc1 [Compound 17, 4-methyl-N-(1,3-thiazol-4-ylmethyl)benzenesulfonamide]",97.1% of control

# Same assay, conditions: compound 100 uM + rotenone (approximately 1.25 μM), two hour incubation
row,Structure (SMILES),POC (percent of control) MCF10A
1,"Cc1ccc(S(=O)(=O)NCc2cscn2)cc1 [Compound 17, 4-methyl-N-(1,3-thiazol-4-ylmethyl)benzenesulfonamide]",91.6% of control

# System: MCF7 (breast cancer)
# Experiment: as above
# Assay type: cell-based
# Conditions: Homo sapiens, MCF7, 2 h; compound alone, 100 uM, two hour incubation, control DMSO; read-out: POC (percent of control) MCF7
row,Structure (SMILES),activity at 100 µM [%]
1,"Cc1ccc(S(=O)(=O)NCc2cscn2)cc1 [Compound 17, 4-methyl-N-(1,3-thiazol-4-ylmethyl)benzenesulfonamide]",145

# Same assay, conditions: compound 100 uM + 2DG (about 10-20 mM), two hour incubation
row,Structure (SMILES),POC (percent of control) MCF7
1,"Cc1ccc(S(=O)(=O)NCc2cscn2)cc1 [Compound 17, 4-methyl-N-(1,3-thiazol-4-ylmethyl)benzenesulfonamide]",114.6% of control

# Same assay, conditions: compound 100 uM + rotenone (approximately 1.25 μM), two hour incubation
row,Structure (SMILES),POC (percent of control) MCF7
1,"Cc1ccc(S(=O)(=O)NCc2cscn2)cc1 [Compound 17, 4-methyl-N-(1,3-thiazol-4-ylmethyl)benzenesulfonamide]",90.6% of control

# System: T47D (breast cancer)
# Experiment: as above
# Assay type: cell-based
# Conditions: Homo sapiens, T47D, 2 h; compound alone, 100 uM, two hour incubation, control DMSO; read-out: POC (percent of control) T47D
row,Structure (SMILES),activity at 100 µM [%]
1,"Cc1ccc(S(=O)(=O)NCc2cscn2)cc1 [Compound 17, 4-methyl-N-(1,3-thiazol-4-ylmethyl)benzenesulfonamide]",83

# Same assay, conditions: compound 100 uM + 2DG (about 10-20 mM), two hour incubation
row,Structure (SMILES),POC (percent of control) T47D
1,"Cc1ccc(S(=O)(=O)NCc2cscn2)cc1 [Compound 17, 4-methyl-N-(1,3-thiazol-4-ylmethyl)benzenesulfonamide]",89.1% of control

# Same assay, conditions: compound 100 uM + rotenone (approximately 1.25 μM), two hour incubation
row,Structure (SMILES),POC (percent of control) T47D
1,"Cc1ccc(S(=O)(=O)NCc2cscn2)cc1 [Compound 17, 4-methyl-N-(1,3-thiazol-4-ylmethyl)benzenesulfonamide]",104.6% of control

# System: H293 (kidney cancer)
# Experiment: as above
# Assay type: cell-based
# Conditions: 2 h; compound alone, 100 uM, two hour incubation, control DMSO; read-out: POC (percent of control) H293
row,Structure (SMILES),activity at 100 µM [%]
1,"Cc1ccc(S(=O)(=O)NCc2cscn2)cc1 [Compound 17, 4-methyl-N-(1,3-thiazol-4-ylmethyl)benzenesulfonamide]",80.4

# Same assay, conditions: compound 100 uM + 2DG (about 10-20 mM), two hour incubation
row,Structure (SMILES),POC (percent of control) H293
1,"Cc1ccc(S(=O)(=O)NCc2cscn2)cc1 [Compound 17, 4-methyl-N-(1,3-thiazol-4-ylmethyl)benzenesulfonamide]",85.8% of control

# Same assay, conditions: compound 100 uM + rotenone (approximately 1.25 μM), two hour incubation
row,Structure (SMILES),POC (percent of control) H293
1,"Cc1ccc(S(=O)(=O)NCc2cscn2)cc1 [Compound 17, 4-methyl-N-(1,3-thiazol-4-ylmethyl)benzenesulfonamide]",74.9% of control

# System: BxPC3 (pancreatic cancer)
# Experiment: as above
# Assay type: cell-based
# Conditions: Homo sapiens, BXPC-3, 2 h; compound alone, 100 uM, two hour incubation, control DMSO; read-out: POC (percent of control) BxPC3
row,Structure (SMILES),activity at 100 µM [%]
1,"Cc1ccc(S(=O)(=O)NCc2cscn2)cc1 [Compound 17, 4-methyl-N-(1,3-thiazol-4-ylmethyl)benzenesulfonamide]",91.4

# Same assay, conditions: compound 100 uM + 2DG (about 10-20 mM), two hour incubation
row,Structure (SMILES),POC (percent of control) BxPC3
1,"Cc1ccc(S(=O)(=O)NCc2cscn2)cc1 [Compound 17, 4-methyl-N-(1,3-thiazol-4-ylmethyl)benzenesulfonamide]",101.4% of control

# Same assay, conditions: compound 100 uM + rotenone (approximately 1.25 μM), two hour incubation
row,Structure (SMILES),POC (percent of control) BxPC3
1,"Cc1ccc(S(=O)(=O)NCc2cscn2)cc1 [Compound 17, 4-methyl-N-(1,3-thiazol-4-ylmethyl)benzenesulfonamide]",75.7% of control
